# ChEMBL document CHEMBL1201862, “PubChem BioAssay data set” (2004)
#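 Following 48 hours of exposure in 96-well plates, responses at five concentrations were used to interpolate endpoints linearly. At the GI50, growth is halved.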 Calls of active or inactive are those of the source. Rule as the data show it: active = GI50 up to about 1.1 µM and inactive = higher.
# What was measured:
# Experiment in all cases: NCI-60 cell line screen, 48 h
# [1] = test system: 786-0
# [2] = test system: A498
# [3] = test system: A549
# [4] = test system: HT-29
# [5] = test system: IGROV-1
# [6] = test system: MCF7
# [7] = test system: MOLT-4
# [8] = test system: NCI-H226
# [9] = test system: NCI-H23
# [10] = test system: NCI-H522
# [11] = test system: OVCAR-3
# [12] = test system: PC-3
# [13] = test system: SK-MEL-28
# [14] = test system: SK-MEL-5
# [15] = test system: SN12C
# [16] = test system: SNB-75
# [17] = test system: TK-10
# [18] = test system: UACC-257
# [19] = test system: NCI-H460
SMILES,GI50 [1],GI50 [2],GI50 [3],GI50 [4],GI50 [5],GI50 [6],GI50 [7],GI50 [8],GI50 [9],GI50 [10],GI50 [11],GI50 [12],GI50 [13],GI50 [14],GI50 [15],GI50 [16],GI50 [17],GI50 [18],GI50 [19]
CCOC(=O)c1c(-c2ccc(OC)cc2)c(C#N)c(=S)n(C2OC(CO)C(O)C(O)C2O)c1C (stereo not given),> 100 µM (inactive),> 100 µM (inactive),> 100 µM (inactive),> 100 µM (inactive),> 100 µM (inactive),> 100 µM (inactive),> 100 µM (inactive),> 100 µM (inactive),> 100 µM (inactive),> 100 µM (inactive),> 100 µM (inactive),> 100 µM (inactive),> 100 µM (inactive),> 100 µM (inactive),> 100 µM (inactive),> 100 µM (inactive),> 100 µM (inactive),> 100 µM (inactive),
Cc1cc(Cc2cc(Cc3cc(C)cc(C(C)(C)C)c3O)c(C)cc2C)c(O)c(C(C)(C)C)c1,17.1 µM (inactive),16.1 µM (inactive),15.4 µM (inactive),18.6 µM (inactive),17.3 µM (inactive),12.7 µM (inactive),16.9 µM (inactive),14.8 µM (inactive),17.4 µM (inactive),14.3 µM (inactive),16.4 µM (inactive),> 100 µM (inactive),18 µM (inactive),16.6 µM (inactive),16.6 µM (inactive),11.2 µM (inactive),24.1 µM (inactive),16.2 µM (inactive),
CCCCCC(C)(C)CCC(=O)OC1OC(COC2OC(COC3OC(CO)C(O)C(O)C3O)C(O)C(O)C2O)C(O)C(O)C1O (stereo not given),> 100 µM (inactive),> 100 µM (inactive),> 100 µM (inactive),> 100 µM (inactive),> 100 µM (inactive),> 100 µM (inactive),> 100 µM (inactive),> 100 µM (inactive),> 100 µM (inactive),> 100 µM (inactive),> 100 µM (inactive),> 100 µM (inactive),,> 100 µM (inactive),> 100 µM (inactive),,> 100 µM (inactive),> 100 µM (inactive),> 100 µM (inactive)
c1cc2nnc1SCCCSc1ccc(nn1)SCCCS2,24.2 µM (inactive),97.7 µM (inactive),41.6 µM (inactive),> 30.2 µM (inactive),> 36.7 µM (inactive),32.4 µM (inactive),> 20.8 µM (inactive),24.7 µM (inactive),34.8 µM (inactive),> 100 µM (inactive),> 43.2 µM (inactive),38.7 µM (inactive),> 46.5 µM (inactive),29.1 µM (inactive),> 35.8 µM (inactive),25.1 µM (inactive),35.5 µM (inactive),> 39.9 µM (inactive),
O=C1/C(=C/c2ccccc2)N=C2Sc3c([nH]cnc3=O)N12,> 100 µM (inactive),> 100 µM (inactive),> 100 µM (inactive),> 100 µM (inactive),> 100 µM (inactive),> 100 µM (inactive),44.3 µM (inactive),78.2 µM (inactive),> 100 µM (inactive),> 100 µM (inactive),> 100 µM (inactive),> 100 µM (inactive),> 100 µM (inactive),> 100 µM (inactive),> 100 µM (inactive),> 100 µM (inactive),> 100 µM (inactive),> 100 µM (inactive),
O=C(c1cccc(F)c1F)N1CCc2c([nH]c3ccccc23)C1c1ccc2c(c1)OCO2 (stereo not given),22.5 µM (inactive),7.55 µM (inactive),7.08 µM (inactive),8.32 µM (inactive),16.2 µM (inactive),4.27 µM (inactive),5.24 µM (inactive),,11.7 µM (inactive),7.8 µM (inactive),1.64 µM (inactive),2.97 µM (inactive),32.1 µM (inactive),3.63 µM (inactive),14.3 µM (inactive),1.99 µM (inactive),22.5 µM (inactive),11.2 µM (inactive),6.56 µM (inactive)
CC1C2C=CC1C(c1c3ccc(=O)c(O)c-3oc3c(O)c(O)ccc13)C2C(=O)O (stereo not given),61 µM (inactive),> 100 µM (inactive),35 µM (inactive),> 100 µM (inactive),> 100 µM (inactive),20.7 µM (inactive),21.6 µM (inactive),10.2 µM (inactive),35.6 µM (inactive),,> 100 µM (inactive),> 100 µM (inactive),> 100 µM (inactive),91.6 µM (inactive),24 µM (inactive),,> 100 µM (inactive),> 100 µM (inactive),> 100 µM (inactive)
Cc1cccc(Nc2nn3c(=O)c4c5c(sc4nc3s2)CCCC5)c1,45.9 µM (inactive),,14.8 µM (inactive),10.4 µM (inactive),43.4 µM (inactive),6.17 µM (inactive),48.4 µM (inactive),> 100 µM (inactive),14 µM (inactive),4.35 µM (inactive),25.9 µM (inactive),38.7 µM (inactive),> 100 µM (inactive),2.4 µM (inactive),66.7 µM (inactive),23.2 µM (inactive),37.7 µM (inactive),21.5 µM (inactive),6.24 µM (inactive)
C=CC1(O)CCCC=C1COCc1ccccc1 (stereo not given),> 100 µM (inactive),> 100 µM (inactive),> 100 µM (inactive),93.5 µM (inactive),16.6 µM (inactive),> 100 µM (inactive),23.4 µM (inactive),> 100 µM (inactive),98.6 µM (inactive),16 µM (inactive),,67.8 µM (inactive),71 µM (inactive),52.6 µM (inactive),70 µM (inactive),61.4 µM (inactive),> 100 µM (inactive),> 100 µM (inactive),> 100 µM (inactive)
CO/N=C\c1ccc2c(c1)Sc1ccccc1O2,69.5 µM (inactive),> 100 µM (inactive),44.8 µM (inactive),33.1 µM (inactive),62.4 µM (inactive),34.7 µM (inactive),54.7 µM (inactive),> 100 µM (inactive),63 µM (inactive),,> 100 µM (inactive),51.9 µM (inactive),> 100 µM (inactive),,> 100 µM (inactive),52.5 µM (inactive),> 100 µM (inactive),57 µM (inactive),40.2 µM (inactive)
Cc1cc(NCc2ccccc2)c2ccccc2[n+]1CCCCCCCCCC[n+]1c(C)cc(NCc2ccccc2)c2ccccc21.[O-][Cl+3]([O-])([O-])[O-].[O-][Cl+3]([O-])([O-])[O-],0.653 µM (active),0.883 µM (active),0.394 µM (active),0.345 µM (active),2.98 µM (inactive),0.318 µM (active),0.423 µM (active),,0.247 µM (active),19.5 µM (inactive),,0.458 µM (active),0.71 µM (active),0.171 µM (active),0.279 µM (active),0.205 µM (active),1.21 µM (inactive),0.274 µM (active),0.228 µM (active)
CC(C(=O)N1c2ccccc2Sc2ccccc21)N1c2ccccc2Sc2ccccc21 (stereo not given),88.1 µM (inactive),31.8 µM (inactive),> 100 µM (inactive),72.3 µM (inactive),79.8 µM (inactive),42.9 µM (inactive),42.9 µM (inactive),40.1 µM (inactive),74.8 µM (inactive),,55 µM (inactive),97.5 µM (inactive),> 100 µM (inactive),57.5 µM (inactive),> 100 µM (inactive),96.4 µM (inactive),> 100 µM (inactive),> 100 µM (inactive),> 100 µM (inactive)
Cc1ccc2c(c1)C(=O)c1nc(C)ccc1C2=O,43.8 µM (inactive),59.3 µM (inactive),31 µM (inactive),17 µM (inactive),22.1 µM (inactive),25.6 µM (inactive),69.3 µM (inactive),43.5 µM (inactive),19.5 µM (inactive),28.7 µM (inactive),57.1 µM (inactive),35.2 µM (inactive),50.7 µM (inactive),6.9 µM (inactive),26.5 µM (inactive),29.8 µM (inactive),38.3 µM (inactive),23.6 µM (inactive),
COc1ccc(-c2c(C#N)c(S)n(NS(=O)(=O)c3ccc(C)cc3)c(=O)c2C#N)cc1,15.6 µM (inactive),30.5 µM (inactive),27.5 µM (inactive),31.6 µM (inactive),14.6 µM (inactive),29.4 µM (inactive),7.06 µM (inactive),20 µM (inactive),,14.8 µM (inactive),,18.2 µM (inactive),24.2 µM (inactive),13.8 µM (inactive),17.2 µM (inactive),30.5 µM (inactive),32.4 µM (inactive),32 µM (inactive),32.6 µM (inactive)
COc1ccc2c3c1OC1C4(CCC5C(C2)N(CC2CC2)CCC351)OCCO4 (stereo not given),> 100 µM (inactive),,> 100 µM (inactive),> 100 µM (inactive),> 100 µM (inactive),> 100 µM (inactive),> 100 µM (inactive),> 100 µM (inactive),> 100 µM (inactive),> 100 µM (inactive),> 100 µM (inactive),> 100 µM (inactive),> 100 µM (inactive),> 100 µM (inactive),> 100 µM (inactive),> 100 µM (inactive),> 100 µM (inactive),> 100 µM (inactive),> 100 µM (inactive)
